The source of these data is patent US11414424B2, “Cardiac sarcomere inhibitors” (Cytokinetics, Inc., priority 2018, dated 2022).

The test relates to bovine cardiac myofibrils. Description: Myofibril assay: PK/LDH-coupled steady-state ATPase activity of skinned bovine cardiac myofibrils. In kind it is biochemical. Particulars: Ca2+ activating to 75% of maximal rate. How it is done: To evaluate the effect of compounds on the ATPase activity of full-length cardiac myosin in the context of the native sarcomere, skinned myofibril assays were performed. Bovine cardiac myofibrils were obtained by homogenizing bovine cardiac left ventricular tissue in the presence of a detergent such as triton X-100. Such treatment removes membranes and a majority of the soluble cytoplasmic proteins but leaves intact the cardiac sarcomeric acto-myosin apparatus. Myofibril preparations retain the ability to hydrolyze ATP in a Ca^2+ regulated manner. ATPase activities of such myofibril preparations in the presence and absence of compounds were assayed at Ca^2+ concentrations activating to a defined fraction of the maximal rate (i.e., […], 75%). Small molecule agents were assessed for their ability to inhibit the steady-state ATPase activity of bovine cardiac myofibrils using pyruvate kinase and lactate dehydrogenase (PK/LDH)-coupled enzyme system. This assay regenerates myosin-produced ADP into ATP by oxidizing NADH, producing an absorbance change at 340 nm. Prior to testing small molecule agents, the bovine cardiac myofibrils were assessed for their calcium responsiveness and the calcium concentration that achieves either a 50% (pCa50) or 75% (pCa75) activation of the myofibril system was chosen as the final condition for assessing the inhibitory activity of the small molecule agents. All enzymatic activity was measured in a buffered solution containing 12 mM PIPES (piperazine-N,N′-bis(2-ethanesulfonic acid), 2 mM magnesium chloride at pH 6.8 (PM 12 buffer). Final assay conditions were 1 mg/mL of bovine cardiac myofibrils, 4 U/mL pyruvate kinase, 6 U/mL lactate dehydrogenase, 50 μM ATP, 0.1 mg/mL BSA (bovine serum albumin), 10 ppm antifoam, 1 mM DTT, 0.5 mM NADH, 1.5 mM PEP, 0.6 mM EGTA, and an amount of CaCl2 sufficient to achieve either 50% or 75% activation of the myofibril ATPase activity. Results for compounds tested are provided in Table A. Compounds tested were prepared in accordance with the synthetic procedures described herein.
Take `Cc1ccc(N2CC3(C2)C(=O)N(C(C)C)CC(=O)N3Cc2ccc(Cl)cc2)cn1` [Compound 14, 5-(4-chlorobenzyl)-8-isopropyl-2-(6-methyl-pyridin-3-yl)-2,5,8-triazaspiro[3.5]nonane-6,9-dione]: the “CDMF75 IC15” value is 6.0 µM. As for `Cc1ccnc(N2CC3(C2)C(=O)N(C(C)C)CC(=O)N3Cc2ccc(Cl)cc2)c1` [Compound 15, 5-(4-chlorobenzyl)-8-isopropyl-2-(4-methyl-pyridin-2-yl)-2,5,8-triazaspiro[3.5]nonane-6,9-dione], the “CDMF75 IC15” value worked out at 2.7 µM.

For `Cc1cncc(N2CC3(C2)C(=O)N(C(C)C)CC(=O)N3Cc2ccc(Cl)cc2)c1` [Compound 16, 5-(4-chlorobenzyl)-8-isopropyl-2-(5-methyl-pyridin-3-yl)-2,5,8-triazaspiro[3.5]nonane-6,9-dione], the “CDMF75 IC15” value stood at 2.7 µM.

On to `CC(C)N1CC(=O)N(Cc2ccc(Cl)cc2)C2(CN(c3ccc(F)cn3)C2)C1=O` [Compound 17, 5-(4-chlorobenzyl)-2-(5-fluoropyridin-2-yl)-8-isopropyl-2,5,8-triazaspiro[3.5]nonane-6,9-dione], for which the “CDMF75 IC15” value came out at 1.7 µM.

Turning to `CC(C)N1CC(=O)N(Cc2ccc(Cl)cc2)C2(CN(c3cncc(F)c3)C2)C1=O` [Compound 18, 5-(4-chlorobenzyl)-2-(5-fluoropyridin-3-yl)-8-isopropyl-2,5,8-triazaspiro[3.5]nonane-6,9-dione], the “CDMF75 IC15” value amounted to 3.1 µM. As for `CC(C)N1CC(=O)N(Cc2ccc(Cl)cc2)C2(CN(c3ccncn3)C2)C1=O` [Compound 19, 5-(4-chlorobenzyl)-8-isopropyl-2-(pyrimidin-4-yl)-2,5,8-triazaspiro-[3.5]nonane-6,9-dione], the “CDMF75 IC15” value came to 5.7 µM. With `CC(C)N1C(=O)C2(CN(c3ccc(F)cc3)C2)N(Cc2ccc(Cl)cc2)C(=O)C1C` (stereo not drawn) [Compound 20, 5-(4-chlorobenzyl)-2-(4-fluorophenyl)-8-isopropyl-7-methyl-2,5,8-triazaspiro[3.5]nonane-6,9-dione], the “CDMF75 IC15” value was 7.5 µM. For `CC(C)N1CC(=O)N(Cc2ccc(Cl)cc2)C2(CN(c3cnn(C)c3)C2)C1=O` [Compound 21, 5-(4-chlorobenzyl)-8-isopropyl-2-(1-methyl-1H-pyrazol-4-yl)-2,5,8-triazaspiro[3.5]nonane-6,9-dione], the “CDMF75 IC15” value is 2.6 µM. On to `CC(C)N1CC(=O)N(Cc2ccc(Cl)cc2)C2(CN(c3nccs3)C2)C1=O` [Compound 22, 5-(4-chlorobenzyl)-8-isopropyl-2-(thiazol-2-yl)-2,5,8-triazaspiro[3.5]-nonane-6,9-dione], for which the “CDMF75 IC15” value amounted to 4.1 µM. On to `CC(C)N1CC(=O)N(Cc2ccc(Cl)cc2)C2(CN(c3cccnn3)C2)C1=O` [Compound 23, 5-(4-chlorobenzyl)-8-isopropyl-2-(pyridazin-3-yl)-2,5,8-triazaspiro[3.5]-nonane-6,9-dione], for which the “CDMF75 IC15” value came out at 2.2 µM. Consider `CC(C)N1CC(=O)N(Cc2ccc(Cl)cc2)C2(CN(c3ccnnc3)C2)C1=O` [Compound 24, 5-(4-chlorobenzyl)-8-isopropyl-2-(pyridazin-4-yl)-2,5,8-triazaspiro[3.5]-nonane-6,9-dione], for which the “CDMF75 IC15” value is 5.7 µM. Next, `CC(C)N1CC(=O)N(Cc2ccc(Cl)cc2)C2(CN(c3cncnc3)C2)C1=O` [Compound 25, 5-(4-chlorobenzyl)-8-isopropyl-2-(pyrimidin-5-yl)-2,5,8-triazaspiro-[3.5]nonane-6,9-dione]: 8.8 µM; `Cc1cc(N2CC3(C2)C(=O)N(C(C)C)CC(=O)N3Cc2ccc(Cl)cc2)n[nH]1` [Compound 26, 5-(4-chlorobenzyl)-8-isopropyl-2-(5-methyl-1H-pyrazol-3-yl)-2,5,8-triazaspiro[3.5]nonane-6,9-dione]: 3.0 µM; `CC(C)N1CC(=O)N(Cc2ccc(Cl)cc2)C2(CN(c3ccnc(C#N)c3)C2)C1=O` [Compound 27, 4-(5-(4-chlorobenzyl)-8-isopropyl-6,9-dioxo-2,5,8-triazaspiro[3.5]nonan-2-yl)picolinonitrile]: 8.6 µM. With `CC(C)N1CC(=O)N(Cc2ccc(Cl)cc2)C2(CN(c3ccnc(O)c3)C2)C1=O` [Compound 28, 5-(4-chlorobenzyl)-2-(2-hydroxypyridin-4-yl)-8-isopropyl-2,5,8-triazaspiro[3.5]nonane-6,9-dione], the “CDMF75 IC15” value was 3.1 µM. Take `CC(C)N1CC(=O)N(Cc2ccc(Cl)cc2)C2(CN(c3ccnc(C(F)F)c3)C2)C1=O` [Compound 29, 5-(4-chlorobenzyl)-2-(2-(difluoromethyl)pyridin-4-yl)-8-isopropyl-2,5,8-triazaspiro[3.5]nonane-6,9-dione]: the “CDMF75 IC15” value amounted to 5.6 µM. For the molecule `Cc1ccc(CN2C(=O)CN(C(C)C)C(=O)C23CN(c2ccnc(C)c2)C3)cc1` [Compound 30, 8-isopropyl-5-(4-methylbenzyl)-2-(2-methylpyridin-4-yl)-2,5,8-triazaspiro[3.5]-nonane-6,9-dione], the “CDMF75 IC15” value amounted to 21.1 µM.

For `Cc1cc(N2CC3(C2)C(=O)N(C(C)C)CC(=O)N3Cc2ccc(C(F)(F)F)cc2)ccn1` [Compound 31, 8-isopropyl-2-(2-methylpyridin-4-yl)-5-(4-(trifluoromethyl)benzyl)-2,5,8-triazaspiro[3.5]-nonane-6,9-dione], the “CDMF75 IC15” value came to 2.7 µM. Next, `CC(C)N1CC(=O)N(Cc2ccc(Cl)cc2)C2(CN(c3cscn3)C2)C1=O` [Compound 32, 5-(4-chlorobenzyl)-8-isopropyl-2-(thiazol-4-yl)-2,5,8-triazaspiro[3.5]-nonane-6,9-dione]: 9.6 µM; `CC(C)N1CC(=O)N(Cc2ccc(Cl)cc2)C2(CN(c3cncs3)C2)C1=O` [Compound 33, 5-(4-chlorobenzyl)-8-isopropyl-2-(thiazol-5-yl)-2,5,8-triazaspiro[3.5]-nonane-6,9-dione]: 5.4 µM.

For the molecule `CC(C)N1CC(=O)N(Cc2ccc(Cl)cc2)C2(CN(c3ccnc(C4CC4)c3)C2)C1=O` [Compound 34, 5-(4-chlorobenzyl)-2-(2-cyclopropylpyridin-4-yl)-8-isopropyl-2,5,8-triazaspiro[3.5]nonane-6,9-dione], the “CDMF75 IC15” value worked out at 10.4 µM. For the molecule `COC(=O)c1cc(N2CC3(C2)C(=O)N(C(C)C)CC(=O)N3Cc2ccc(Cl)cc2)ccn1` [Compound 35, methyl 4-(5-(4-chloro-benzyl)-8-isopropyl-6,9-dioxo-2,5,8-triazaspiro[3.5]nonan-2-yl)picolinate], the “CDMF75 IC15” value stood at 14.6 µM. For `CC(C)N1CC(=O)N(Cc2ccc(Cl)cc2)C2(CN(c3ccnc(C(=O)O)c3)C2)C1=O` [Compound 36, 4-(5-(4-chlorobenzyl)-8-isopropyl-6,9-dioxo-2,5,8-triazaspiro[3.5]nonan-2-yl)picolinic acid], the “CDMF75 IC15” value was determined as 24.5 µM. `CC(C)N1CC(=O)N(Cc2ccc(Cl)cc2)C2(CN(c3ccnc(C(N)=O)c3)C2)C1=O` [Compound 37, 4-(5-(4-chlorobenzyl)-8-isopropyl-6,9-dioxo-2,5,8-triazaspiro[3.5]nonan-2-yl)picolinamide]: the “CDMF75 IC15” value was found to be 6.0 µM. Take `CNC(=O)c1cc(N2CC3(C2)C(=O)N(C(C)C)CC(=O)N3Cc2ccc(Cl)cc2)ccn1` [Compound 38, 4-(5-(4-chlorobenzyl)-8-isopropyl-6,9-dioxo-2,5,8-triazaspiro-[3.5]nonan-2-yl)-N-methylpicolinamide]: the “CDMF75 IC15” value worked out at 12.4 µM. In the case of `CC(C)N1CC(=O)N(Cc2ccc(Cl)cc2)C2(CN(c3nc(C(F)(F)F)cs3)C2)C1=O` [Compound 39, 5-(4-chlorobenzyl)-8-isopropyl-2-(4-(trifluoromethyl)thiazol-2-yl)-2,5,8-triazaspiro-[3.5]nonane-6,9-dione], the “CDMF75 IC15” value turned out to be 3.9 µM.

As to `CC(C)N1CC(=O)N(Cc2ccc(Cl)cc2)C2(CN(c3nc(C(N)=O)cs3)C2)C1=O` [Compound 40, 2-(5-(4-chlorobenzyl)-8-isopropyl-6,9-dioxo-2,5,8-triazaspiro[3.5]nonan-2-yl)thiazole-4-carboxamide], the “CDMF75 IC15” value stood at 7.2 µM.

For the molecule `CC(C)N1CC(=O)N(Cc2ccc(Cl)cc2)C2(CN(c3cn[nH]c3)C2)C1=O` [Compound 41, 5-(4-chlorobenzyl)-8-isopropyl-2-(1H-pyrazol-4-yl)-2,5,8-triazaspiro-[3.5]nonane-6,9-dione], the “CDMF75 IC15” value came out at 7.0 µM. Take `CC(C)N1CC(=O)N(Cc2ccc(Cl)cc2)C2(CN(c3ccn(C)c(=O)c3)C2)C1=O` [Compound 42, 5-(4-chlorobenzyl)-8-isopropyl-2-(1-methyl-2-oxo-1,2-dihydropyridin-4-yl)-2,5,8-triazaspiro-[3.5]nonane-6,9-dione]: the “CDMF75 IC15” value was found to be 5.4 µM. As to `Cc1csc(N2CC3(C2)C(=O)N(C(C)C)CC(=O)N3Cc2ccc(Cl)cc2)n1` [Compound 43, 5-(4-chlorobenzyl)-8-isopropyl-2-(4-methyl-thiazol-2-yl)-2,5,8-triazaspiro[3.5]nonane-6,9-dione], the “CDMF75 IC15” value turned out to be 3.3 µM.
